One test deals with P. aeruginosa. Nature of the test: MIC50 for P. aeruginosa. The format is cell-based, Pseudomonas aeruginosa. Particulars: for MIC / minimum inhibition conc: Table 2; for MIC: read-out: minimum inhibition conc.
The test system of the next test is C. elegans. Nature of the test: C. elegans assay (infected worms). The format is in vivo. Conditions: for C. elegans: Table 3A, infected worms.
Test [1] has as its target T1, pa-HO (Pseudomonas aeruginosa, UniProt O69002). It counts as binding. Conditions: for NMR sat. transfer: Table 2, paHO; for NMR pa-HO: Table 3A.
Test [2] concerns the target T1, pa-HO. Nature of the test: biochemical. The format is binding. Particulars: for Kd: read-out: Fluorescence pa-HO Kd.
Test [3] concerns the target T2, nm-HO (Neisseria meningitidis, UniProt Q9AH50). It counts as cell-based. Details: key to E. coli assay biliverdin pigmentation: + biliverdin observed in cell pellet; − biliverdin not observed.
In test [4] the target is T2, nm-HO. Put plainly: biochemical. It counts as binding.
The test system of the next test is P. aeruginosa MPA01. The format is cell-based. Particulars: 500 μM and above.
Setting [5] is: Pseudomonas aeruginosa, Table 3A, read-out: MIC 50.
Where [6] appears, read: Table 2, colour of cell pellet (white = no biliverdin, green = biliverdin) or toxicity to cells.
[7] abbreviates: Table 3B, nm-HO in E. coli expression system.
The mark [8] stands for this setting: Pseudomonas aeruginosa, Table 3B, P. aeruginosa, read-out: MIC 50.
The mark [9] stands for this setting: Table 4, target not named, values match nm-HO of Table 3A.

Like-named read-outs stand apart in the source and are kept apart here. A value given as a limit tells only on which side of the number the result lay.
Throughout, for NMR pa-HO: key: Shows binding by NMR method = +; Ambig = ambiguous.

T2 sequence (Q9AH50 1-209): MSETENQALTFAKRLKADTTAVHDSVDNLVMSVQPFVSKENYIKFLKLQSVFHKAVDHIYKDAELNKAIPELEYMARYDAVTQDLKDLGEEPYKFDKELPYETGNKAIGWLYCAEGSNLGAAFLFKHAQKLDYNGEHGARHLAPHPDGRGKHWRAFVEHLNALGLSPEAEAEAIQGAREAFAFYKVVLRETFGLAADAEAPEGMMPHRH
T1 sequence (O69002 1-198): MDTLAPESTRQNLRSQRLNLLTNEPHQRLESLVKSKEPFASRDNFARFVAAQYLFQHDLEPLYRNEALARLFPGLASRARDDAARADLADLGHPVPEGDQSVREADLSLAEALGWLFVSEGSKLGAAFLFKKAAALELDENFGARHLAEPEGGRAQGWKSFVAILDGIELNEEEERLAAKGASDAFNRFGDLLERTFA

As for `NCc1ccc2c3c(cccc13)C(=O)N2` [Compound 87], the MIC in the test with P. aeruginosa (Pseudomonas aeruginosa) was greater than 125 µg/mL. The MIC50 in the test on P. aeruginosa (setting [5]) was greater than 125 µg/mL. The “MIC50” value with P. aeruginosa (Table 3B, P. aeruginosa) is greater than 125 µg/mL. In addition, the C. elegans entry in the test on C. elegans is “Inconclusive”. At pa-HO [1], the NMR sat. transfer entry is listed as “yes, bind paHO” and the “NMR pa-HO” value was “+”.

As to `CCN(CC)c1ccc(/C=N/n2nnnc2N)c(O)c1` [Compound 149], the fluorescence binding entry on pa-HO [2] is given as “yes”. Also, on pa-HO [1], the NMR sat. transfer entry is “do not bind paHO”.

With `O=C1C=C(Nc2ccccc2O)c2ccccc2C1=O` [Compound 114], the E. coli assay entry at nm-HO [3] (setting [6]) is recorded as “toxic to cells”; on nm-HO [3] (Table 6) it was “Toxic”. The “Biliverdin detection from E. coli Assay” value is on record as “Toxic” on nm-HO [3] (Table 3A, pellet colour) and “Toxic” at nm-HO [3] (setting [7]). In addition, the fluorescence binding entry at pa-HO [2] was “yes”. This molecule also displayed a Kd at nm-HO [4] of 28.8 µM.

In the case of `O=C(Cc1ccc(Cl)cc1)N/N=C/c1c[nH]c2ccccc12` [Compound 126], the results for the E. coli assay entry at nm-HO [3] (setting [6]) and at nm-HO [3] (Table 4) were “white pellet” and “White pellet”, respectively. The “Biliverdin detection from E. coli Assay” value at nm-HO [3] (Table 3A, pellet colour) was “White pellet”; on nm-HO [3] (setting [7]), “White pellet”. Further, in the test with P. aeruginosa (setting [8]), the MIC50 was greater than 1000 µg/mL. In addition, the minimum inhibition conc result in the test on P. aeruginosa is reported as “no antibacterial activity”. In the test on P. aeruginosa (Table 3A), the “MIC 50 (ug/ml)” value was “no antibact activity”. In addition, at pa-HO [2], the fluorescence binding result is listed as “yes”. The Kd at pa-HO [2] (Table 3A) worked out at 15.8 µM; on nm-HO [4], 14.1 µM; at nm-HO [4] (setting [9]) it was 14.1 µM.

Take `O=C(Cc1ccc([N+](=O)O)cc1)N/N=C/c1ccc(O)cc1` [Compound 44]: on pa-HO [1], the NMR sat. transfer result is listed as “Alias: CB-22 fluorescence binding: nd minimum inhibition conc: nd NMR sat. transfer: tested, ambiguous” and the “NMR pa-HO” value is “Ambig”. The molecule further registered a Kd on nm-HO [4] of 12.3 µM.

Turning to `O=C(O)/C=C\C(=O)Nc1ccc(Nc2ccccc2)cc1` [chembridge010392], the “inhibitory effect in the presence of Fe(III)-pyoverdine” value in the test on P. aeruginosa MPA01 is on record as “slight inhibitory effect”.

As to `O=C(c1ccco1)C12CN3CN(CN(C3)C1)C2` [Compound 133], the E. coli assay entry at nm-HO [3] (setting [6]) was “Alias: CB-9 fluorescence binding: nd minimum inhibition conc: nd NMR sat. transfer: nd E. coli assay: green pellet”; on nm-HO [3] (Table 4) it was “Green Pellet”. Further, the “Biliverdin detection from E. coli Assay” value on nm-HO [3] (Table 3A, pellet colour) is reported as “Green Pellet”; at nm-HO [3] (setting [7]) it was “Green Pellet”. Besides, the MIC50 was greater than 380 µg/mL in the test on P. aeruginosa (setting [5]) and greater than 380 µg/mL against P. aeruginosa (Table 3B, P. aeruginosa).

For the molecule `O=C(O)CCC(=O)Nc1ccc(Oc2ccccc2)cc1` [Compound 48], the E. coli assay entry on nm-HO [3] (setting [6]) is reported as “white pellet”. In addition, the NMR sat. transfer entry on pa-HO [1] is “do not bind paHO”.

In the case of `O=C(O)/C=C\C(=O)Nc1ccc(Nc2ccccc2)cc1` [Compound 75], the E. coli assay entry at nm-HO [3] (setting [6]) is listed as “white pellet”; at nm-HO [3] (Table 4), “White pellet”. Besides, the “Biliverdin detection from E. coli Assay” value is reported as “White pellet” on nm-HO [3] (Table 3A, pellet colour) and “White pellet” at nm-HO [3] (setting [7]). In the test on P. aeruginosa (Pseudomonas aeruginosa), the MIC was greater than 1000 µg/mL. Also, the MIC50 is greater than 1000 µg/mL with P. aeruginosa (setting [5]) and greater than 1000 µg/mL against P. aeruginosa (Table 3B, P. aeruginosa). Further, the C. elegans result in the test on C. elegans is recorded as “no effect”. In addition, the fluorescence binding entry on pa-HO [2] is “yes”. The values for the Kd at pa-HO [2] (Table 3A) and at nm-HO [4] were 20.1 µM and 15.6 µM, respectively.

`O=C(O)CN1C(=O)c2ccccc2C1=O` [Compound 150]: in the test on P. aeruginosa (setting [8]), the MIC50 is greater than 1000 µg/mL. Also, the minimum inhibition conc result in the test with P. aeruginosa was “no antibacterial activity”. Moreover, the “MIC 50 (ug/ml)” value in the test on P. aeruginosa (Table 3A) is reported as “no antibact activity”. For the same molecule, on pa-HO [2], the fluorescence binding result is reported as “yes”. In addition, at pa-HO [1], the NMR sat. transfer entry is “yes, bind paHO” and the “NMR pa-HO” value was “+”.

As to `CN(C)c1ccc(/C=N/NC(=N)N)cc1` [Compound 1], on nm-HO [3] (E. coli cells expressing nm-HO, cell pellet), the “E. coli assay biliverdin pigmentation” value is “−”. Also, the E. coli assay entry at nm-HO [3] (setting [6]) is given as “white pellet”; at nm-HO [3] (Table 4) it was “White pellet”. For the same molecule, the “Biliverdin detection from E. coli Assay” value at nm-HO [3] (Table 3A, pellet colour) is “White pellet”; at nm-HO [3] (setting [7]) it was “White pellet”. For the same molecule, the MIC with P. aeruginosa (Pseudomonas aeruginosa) was greater than 160 µg/mL. Moreover, the MIC50 in the test on P. aeruginosa (setting [5]) was greater than 160 µg/mL; with P. aeruginosa (Table 3B, P. aeruginosa) it was greater than 160 µg/mL. Further, the C. elegans assay entry in the test on C. elegans (Table 2) was “yes”. Moreover, the fluorescence binding entry on pa-HO [2] is listed as “yes”. The Kd at pa-HO [2] (Table 3A) was 30.1 µM; at nm-HO [4] (Table 3A, read-out: Fluorescence nm-HO Kd), 22.9 µM; at nm-HO [4] (Table 4, target not named, values match nm-HO of Table 3A, read-out: Kd), 22.9 µM. On pa-HO [1], the NMR sat. transfer result is recorded as “yes, bind paHO”. Moreover, the “NMR pa-HO” value at pa-HO [1] was “+”.

For the molecule `Cl.N=C(N/N=C\c1cccnc1)N/N=C\c1cccnc1` [Compound 148], the E. coli assay entry at nm-HO [3] (setting [6]) is “white pellet”; at nm-HO [3] (Table 4), “White pellet”. The “Biliverdin detection from E. coli Assay” value on nm-HO [3] (Table 3A, pellet colour) is given as “White pellet”; on nm-HO [3] (setting [7]) it was “White pellet”. Besides, in the test with P. aeruginosa (setting [8]), the MIC50 was greater than 1000 µg/mL. Also, in the test on P. aeruginosa, the minimum inhibition conc entry is “no antibacterial activity”. Besides, the “MIC 50 (ug/ml)” value with P. aeruginosa (Table 3A) is “no antibact activity”. Also, the fluorescence binding entry on pa-HO [2] was “Alias: CB-31 Compound 1 in manuscript fluorescence binding: yes minimum inhibition conc: no antibacterial activity NMR sat. transfer: E. coli assay: white pellet”. Moreover, the results for the Kd at pa-HO [2], on nm-HO [4] and at nm-HO [4] (setting [9]) were 15.9 µM, 12.2 µM and 12.2 µM, respectively.

With `NC(=O)c1ccc(NC(=O)/C=C\C(=O)O)cc1Cl` [Compound 8], the E. coli assay result was “green pellet” on nm-HO [3] (setting [6]) and “Green Pellet” at nm-HO [3] (Table 4). For the same molecule, the “Biliverdin detection from E. coli Assay” value at nm-HO [3] (Table 3A, pellet colour) was “Green Pellet”; on nm-HO [3] (setting [7]) it was “Green Pellet”. Further, the MIC with P. aeruginosa (Pseudomonas aeruginosa) was greater than 750 µg/mL. The MIC50 with P. aeruginosa (setting [5]) is greater than 750 µg/mL; against P. aeruginosa (Table 3B, P. aeruginosa), greater than 750 µg/mL.

As for `O=C(NNC(=O)c1ccncc1)c1ccncc1` [Compound 24], the E. coli assay entry is on record as “Alias: CD-18 (Compound 7 in manuscript) fluorescence binding: yes minimum inhibition conc: nd NMR sat. transfer: nd E. coli assay: green pellet” on nm-HO [3] (setting [6]) and “Green Pellet” at nm-HO [3] (Table 5). Also, the “Biliverdin detection from E. coli Assay” value on nm-HO [3] (Table 3A, pellet colour) was “Green Pellet”; at nm-HO [3] (setting [7]), “Green Pellet”. For the same molecule, the fluorescence binding result at pa-HO [2] is “Alias: CD-18 (Compound 7 in manuscript) fluorescence binding: yes minimum inhibition conc: nd NMR sat. transfer: nd E. coli assay: green pellet”.

Consider `CC(=O)Nc1ccc(/N=C/c2ccco2)cc1` [Compound 119], for which the fluorescence binding entry at pa-HO [2] is “yes”. Besides, the NMR sat. transfer result on pa-HO [1] is recorded as “do not bind paHO”.

Regarding `O=C(O)CSc1ncnc2ccccc12` [Compound 36], the minimum inhibition conc entry with P. aeruginosa is listed as “no antibacterial activity”. Moreover, in the test with P. aeruginosa (Table 3A), the “MIC 50 (ug/ml)” value was “no antibact activity”. At pa-HO [1], the NMR sat. transfer entry is “binds paHO” and the “NMR pa-HO” value is listed as “+”.

As to `O=[N+]([O-])c1cccc(CN2CCNCC2)c1` [Compound 83], the minimum inhibition conc result in the test with P. aeruginosa is on record as “no antibacterial activity”. Besides, in the test on P. aeruginosa (Table 3A), the “MIC 50 (ug/ml)” value is given as “no antibact activity”. For the same molecule, on pa-HO [1], the NMR sat. transfer entry is recorded as “yes, bind paHO” and the “NMR pa-HO” value is listed as “+”.

As to `COc1ccc(C(=O)CCC(=O)O)c(C)c1` [Compound 59], the MIC with P. aeruginosa (Pseudomonas aeruginosa) was greater than 1000 µg/mL. The MIC50 in the test with P. aeruginosa (setting [5]) was greater than 1000 µg/mL; against P. aeruginosa (Table 3B, P. aeruginosa), greater than 1000 µg/mL. Moreover, the fluorescence binding result on pa-HO [2] is on record as “yes”. Also, the NMR sat. transfer result at pa-HO [1] is “yes, bind paHO”. In addition, on pa-HO [1], the “NMR pa-HO” value is “+”.

Regarding `Cc1cc(-c2ccc(F)cc2)nc2cc(C(=O)O)nn12` [Compound 85], the MIC50 in the test on P. aeruginosa (setting [8]) is greater than 1000 µg/mL. In addition, the minimum inhibition conc entry with P. aeruginosa is “no antibacterial activity”. Moreover, in the test on P. aeruginosa (Table 3A), the “MIC 50 (ug/ml)” value was “no antibact activity”. On pa-HO [1], the NMR sat. transfer result is reported as “yes, bind paHO” and the “NMR pa-HO” value was “+”.

As a reminder, the Kd is the concentration at which binding is half-saturated.

Source of the values: patent publication US20100081661A1, “HEME OXYGENASE INHIBITORS, SCREENING METHODS FOR HEME OXYGENASE INHIBITORS AND METHODS OF USE OF HEME OXYGENASE INHIBITORS FOR ANTIMICROBIAL THERAPY” (UNIVERSITY OF MARYLAND, BALTIMORE, priority 2006, published 2010).
